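The compound was tested at five concentrations on cells cultured in 96-well plates, with a 48-hour exposure period. TGI: total growth inhibition.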
Experiments:
Assay in all cases: NCI-60 cell line screen, 48 h
[1] = tested on: T-47D breast
[2] = tested on: SK-MEL-5 melanoma
[3] = tested on: KM12 colon
[4] = tested on: UO-31 renal
[5] = tested on: A549 NSCLC
[6] = tested on: BT-549 breast
[7] = tested on: SK-OV-3 ovarian
[8] = tested on: CAKI-1 renal
[9] = tested on: 786-0 renal
[10] = tested on: U251 CNS
[11] = tested on: MDA-N
[12] = tested on: CCRF-CEM leukemia
[13] = tested on: MALME-3M melanoma
[14] = tested on: HOP-62 NSCLC
[15] = tested on: MDA-MB-231 breast
[16] = tested on: HCT-15 colon
[17] = tested on: SNB-75 CNS
[18] = tested on: OVCAR-8 ovarian
[19] = tested on: SK-MEL-2 melanoma
[20] = tested on: OVCAR-4 ovarian
[21] = tested on: HCT-116 colon
[22] = tested on: DU-145 prostate
[23] = tested on: SW-620 colon
[24] = tested on: NCI-H226 lung
[25] = tested on: NCI/ADR-RES ovarian
[26] = tested on: HL-60(TB) leukemia
[27] = tested on: RPMI-8226 leukemia
[28] = tested on: OVCAR-3 ovarian
[29] = tested on: PC-3 prostate
[30] = tested on: UACC-62 melanoma
[31] = tested on: HOP-92 NSCLC
[32] = tested on: UACC-257 melanoma
[33] = tested on: HT29 colon
[34] = tested on: OVCAR-5 ovarian
[35] = tested on: TK-10 renal
[36] = tested on: NCI-H522 lung
[37] = tested on: SF-295 CNS
[38] = tested on: ACHN renal
[39] = tested on: IGROV1 ovarian
[40] = tested on: SR leukemia
[41] = tested on: MOLT-4 leukemia
[42] = tested on: K-562 leukemia
[43] = tested on: COLO 205 colon
[44] = tested on: M14 melanoma
[45] = tested on: SF-268 CNS
[46] = tested on: LOX IMVI melanoma
[47] = tested on: MDA-MB-435
[48] = tested on: SN12C renal
[49] = tested on: HCC-2998 colon
[50] = tested on: A498 renal
[51] = tested on: EKVX NSCLC
[52] = tested on: SNB-19 CNS
[53] = tested on: SF-539 CNS
[54] = tested on: NCI-H23 lung
[55] = tested on: RXF 393 renal
[56] = tested on: MCF7 breast
[57] = tested on: HS 578T breast
[58] = tested on: NCI-H460 lung

`CCCCNC(=S)Nc1nc(C(=O)NNC(=O)c2ccccc2)cs1` showed a TGI [1] of 39.4 µM, a TGI [2] of 22.7 µM and a TGI [3] of 36.9 µM. The TGI [4] was 28.5 µM, the TGI [5] was 55.2 µM and the TGI [6] was 41.4 µM. For the same compound, the TGI [7] was 35.3 µM, the TGI [8] was 39 µM and the TGI [9] was 35.2 µM. The TGI [10] was greater than 100 µM, the TGI [11] was 39.4 µM and the TGI [12] was greater than 100 µM. It also gave a TGI [13] of 38.8 µM, a TGI [14] of 42.9 µM and a TGI [15] of 29 µM. The TGI [16] was 26.1 µM, the TGI [17] was 72.7 µM and the TGI [18] was 66.9 µM. For the same compound, the TGI [19] was 35.9 µM, the TGI [20] was greater than 100 µM and the TGI [21] was 27.1 µM. The TGI [22] was 53.4 µM, the TGI [23] was 30.2 µM and the TGI [24] was 67.8 µM. It also gave a TGI [25] of 64.2 µM, a TGI [26] greater than 100 µM and a TGI [27] greater than 100 µM. The TGI [28] was 19.7 µM, the TGI [29] was 39.7 µM and the TGI [30] was 41.4 µM. For the same compound, the TGI [31] was greater than 100 µM, the TGI [32] was 37 µM and the TGI [33] was greater than 100 µM. It also gave a TGI [34] of 35 µM, a TGI [35] of 60.6 µM and a TGI [36] of 43.7 µM. For the same compound, the TGI [37] was 33.9 µM, the TGI [38] was 37.3 µM and the TGI [39] was 40.6 µM. The TGI [40] was greater than 100 µM, the TGI [41] was greater than 100 µM and the TGI [42] was greater than 100 µM. For the same compound, the TGI [43] was 27.3 µM, the TGI [44] was 28.6 µM and the TGI [45] was greater than 100 µM. The TGI [46] was 21.7 µM, the TGI [47] was 47.8 µM and the TGI [48] was 38 µM. For the same compound, the TGI [49] was 27.5 µM, the TGI [50] was 79.3 µM and the TGI [51] was greater than 100 µM.

Work on `OC(c1ccccc1)(c1cccnc1)C(O)(c1ccccc1)c1cccnc1` (stereo not given) yielded a TGI [1] greater than 100 µM, a TGI [2] greater than 100 µM and a TGI [3] greater than 100 µM. It also gave a TGI [4] greater than 100 µM, a TGI [5] greater than 100 µM and a TGI [52] greater than 100 µM. The TGI [6] was greater than 100 µM, the TGI [7] was greater than 100 µM and the TGI [8] was greater than 100 µM. The TGI [9] was greater than 100 µM, the TGI [10] was greater than 100 µM and the TGI [53] was greater than 100 µM. It also gave a TGI [11] greater than 100 µM, a TGI [12] greater than 100 µM and a TGI [54] greater than 100 µM. The TGI [13] was greater than 100 µM, the TGI [15] was greater than 100 µM and the TGI [16] was greater than 100 µM. It also gave a TGI [17] greater than 100 µM, a TGI [18] greater than 100 µM and a TGI [55] greater than 100 µM. For the same compound, the TGI [19] was greater than 100 µM, the TGI [21] was greater than 100 µM and the TGI [22] was greater than 100 µM. It also gave a TGI [56] greater than 100 µM, a TGI [23] greater than 100 µM and a TGI [24] greater than 100 µM. The TGI [25] was greater than 100 µM, the TGI [26] was greater than 100 µM and the TGI [27] was greater than 100 µM. The TGI [29] was greater than 100 µM, the TGI [30] was greater than 100 µM and the TGI [31] was greater than 100 µM. The TGI [32] was greater than 100 µM, the TGI [33] was greater than 100 µM and the TGI [34] was greater than 100 µM. It also gave a TGI [35] greater than 100 µM, a TGI [36] greater than 100 µM and a TGI [37] greater than 100 µM. The TGI [38] was greater than 100 µM, the TGI [39] was greater than 100 µM and the TGI [43] was greater than 100 µM. For the same compound, the TGI [44] was greater than 100 µM, the TGI [45] was greater than 100 µM and the TGI [47] was greater than 100 µM. The TGI [57] was greater than 100 µM, the TGI [48] was greater than 100 µM and the TGI [58] was greater than 100 µM. It also gave a TGI [51] greater than 100 µM.
